Assay results taken from patent US11826399B2, “Chlorotoxin agents and uses thereof” (Eisai Inc., priority 2017, dated 2023).
Where “and” joins values, the source holds several entries; their conditions need not be identical. Identical values can stand only once.

Assay: Plasma and tissue distribution of Cryptophycin Payload and Cryptophycin Metabolite 1 after Cryptophycin Payload alone or with CTX in PC-3 xenograft nude mice (LC-MS/MS)
Assay type: in vivo, mouse
Experimental: For the present experiment, materials, methods, drugs and model were as described in Example 21. […] Following intravenous administration, whole blood samples were collected at predetermined time points via cardiac puncture (n=3 mice per time point). Blood samples were centrifuged to obtain plasma and subsequently stored at […] or lower pending analysis. Additionally, at each time point, kidney, liver, small intestine, brain, heart, and tumor were harvested by removing entire specimen from surrounding tissues (only a portion of liver and small intestine were removed). After removal, tissues were rinsed with normal saline solution (contents of small intestine were emptied) and blotted dry with clean adsorptive tissue. Once dried, the specimens were weighed and stored at −20° C. or lower pending analysis. […] Pharmacokinetic (PK) parameters were calculated. Mean plasma and tissue concentrations were used to calculate mean PK parameters. Skin and skeletal muscle which were not assessed due to difficulty of homogenization.
Vehicle for single dose group was 10% ethanol, 5% Tween 80, 85% saline. Vehicle for combination treatment was 5% ethanol, 2.5% Tween 80, 92.5% saline.

[1] = Brain, Payload 0.4 mg/kg + CTX 16 mg/kg IV
[2] = Brain, Payload 0.4 mg/kg IV alone
[3] = Heart, Payload 0.4 mg/kg + CTX 16 mg/kg IV
[4] = Heart, Payload 0.4 mg/kg IV alone
[5] = Kidney, Payload 0.4 mg/kg + CTX 16 mg/kg IV
[6] = Kidney, Payload 0.4 mg/kg IV alone
[7] = Liver, Payload 0.4 mg/kg + CTX 16 mg/kg IV
[8] = Liver, Payload 0.4 mg/kg IV alone
[9] = Payload 0.4 mg/kg + CTX 16 mg/kg IV, 0.083 h
[10] = Payload 0.4 mg/kg + CTX 16 mg/kg IV, 0.5 h
[11] = Payload 0.4 mg/kg + CTX 16 mg/kg IV, 1 h
[12] = Payload 0.4 mg/kg + CTX 16 mg/kg IV, 2 h
[13] = Payload 0.4 mg/kg + CTX 16 mg/kg IV, 6 h
[14] = Payload 0.4 mg/kg + CTX 16 mg/kg IV, 24 h
[15] = Payload 0.4 mg/kg IV alone, 0.083 h
[16] = Payload 0.4 mg/kg IV alone, 0.5 h
[17] = Payload 0.4 mg/kg IV alone, 1 h
[18] = Payload 0.4 mg/kg IV alone, 2 h
[19] = Payload 0.4 mg/kg IV alone, 6 h
[20] = Payload 0.4 mg/kg IV alone, 24 h
[21] = Plasma, Payload 0.4 mg/kg + CTX 16 mg/kg IV
[22] = Plasma, Payload 0.4 mg/kg IV alone
[23] = Small Intestine, Payload 0.4 mg/kg + CTX 16 mg/kg IV
[24] = Small Intestine, Payload 0.4 mg/kg IV alone
[25] = Tumor, Payload 0.4 mg/kg + CTX 16 mg/kg IV
[26] = Tumor, Payload 0.4 mg/kg IV alone

Which results are given for `COc1ccc(CC2NC(=O)C=CCC(C(C)C3OC3c3ccc(CN4CCN(CCC(C)(C)SC)CC4)cc3)OC(=O)C(CC(C)C)NC(=O)C(C)(C)CNC2=O)cc1Cl` (stereo not drawn) [Cryptophycin Metabolite 1]?
AUC(0-t) of Cryptophycin Metabolite 1 [1]: 5.38 ng·h/g; tmax of Cryptophycin Metabolite 1 [1]: 2.00 h; AUC(0-t) of Cryptophycin Metabolite 1 [2]: 4.42 ng·h/g; tmax of Cryptophycin Metabolite 1 [2]: 0.08 h; AUC(0-inf) of Cryptophycin Metabolite 1 [3]: 620 ng·h/g; AUC(0-t) of Cryptophycin Metabolite 1 [3]: 616 ng·h/g; t1/2 of Cryptophycin Metabolite 1 [3]: 3.17 h; tmax of Cryptophycin Metabolite 1 [3]: 0.08 h; AUC(0-inf) of Cryptophycin Metabolite 1 [4]: 396 ng·h/g; AUC(0-t) of Cryptophycin Metabolite 1 [4]: 394 ng·h/g; t1/2 of Cryptophycin Metabolite 1 [4]: 3.06 h; tmax of Cryptophycin Metabolite 1 [4]: 0.08 h; AUC(0-t) of Cryptophycin Metabolite 1 [5]: 2720 ng·h/g; tmax of Cryptophycin Metabolite 1 [5]: 2.00 h; AUC(0-inf) of Cryptophycin Metabolite 1 [6]: 1750 ng·h/g; AUC(0-t) of Cryptophycin Metabolite 1 [6]: 1720 ng·h/g; t1/2 of Cryptophycin Metabolite 1 [6]: 3.99 h; tmax of Cryptophycin Metabolite 1 [6]: 0.50 h; AUC(0-inf) of Cryptophycin Metabolite 1 [7]: 2930 ng·h/g; AUC(0-t) of Cryptophycin Metabolite 1 [7]: 2900 ng·h/g; t1/2 of Cryptophycin Metabolite 1 [7]: 4.04 h; tmax of Cryptophycin Metabolite 1 [7]: 0.08 h; AUC(0-inf) of Cryptophycin Metabolite 1 [8]: 1870 ng·h/g; AUC(0-t) of Cryptophycin Metabolite 1 [8]: 1820 ng·h/g; t1/2 of Cryptophycin Metabolite 1 [8]: 4.77 h; tmax of Cryptophycin Metabolite 1 [8]: 0.08 h; Concentration of Cryptophycin Metabolite 1, Brain, Mean [9]: 0.622 ng/g; Concentration of Cryptophycin Metabolite 1, Heart, Mean [9]: 107 ng/g; Concentration of Cryptophycin Metabolite 1, Kidney, Mean [9]: 115 ng/g; Concentration of Cryptophycin Metabolite 1, Liver, Mean [9]: 1540 ng/g; Concentration of Cryptophycin Metabolite 1, Plasma, Mean [9]: 10.8 ng/mL; Concentration of Cryptophycin Metabolite 1, Small Intestine, Mean [9]: 10.4 ng/g; Concentration of Cryptophycin Metabolite 1, Tumor, Mean [9]: 2.61 ng/g; Concentration of Cryptophycin Metabolite 1, Brain, Mean [10]: 0.641 ng/g; Concentration of Cryptophycin Metabolite 1, Heart, Mean [10]: 94.9 ng/g; Concentration of Cryptophycin Metabolite 1, Kidney, Mean [10]: 252 ng/g; Concentration of Cryptophycin Metabolite 1, Liver, Mean [10]: 1000 ng/g; Concentration of Cryptophycin Metabolite 1, Plasma, Mean [10]: 8.10 ng/mL; Concentration of Cryptophycin Metabolite 1, Small Intestine, Mean [10]: 18.5 ng/g; Concentration of Cryptophycin Metabolite 1, Tumor, Mean [10]: 2.69 ng/g; Concentration of Cryptophycin Metabolite 1, Brain, Mean [11]: 1.07 ng/g; Concentration of Cryptophycin Metabolite 1, Heart, Mean [11]: 77.1 ng/g; Concentration of Cryptophycin Metabolite 1, Kidney, Mean [11]: 285 ng/g; Concentration of Cryptophycin Metabolite 1, Liver, Mean [11]: 1370 ng/g; Concentration of Cryptophycin Metabolite 1, Plasma, Mean [11]: 12.4 ng/mL; Concentration of Cryptophycin Metabolite 1, Small Intestine, Mean [11]: 26.9 ng/g; Concentration of Cryptophycin Metabolite 1, Tumor, Mean [11]: 3.90 ng/g; Concentration of Cryptophycin Metabolite 1, Brain, Mean [12]: 1.09 ng/g; Concentration of Cryptophycin Metabolite 1, Heart, Mean [12]: 87.9 ng/g; Concentration of Cryptophycin Metabolite 1, Kidney, Mean [12]: 370 ng/g; Concentration of Cryptophycin Metabolite 1, Liver, Mean [12]: 335 ng/g; Concentration of Cryptophycin Metabolite 1, Plasma, Mean [12]: 5.12 ng/mL; Concentration of Cryptophycin Metabolite 1, Small Intestine, Mean [12]: 21.8 ng/g; Concentration of Cryptophycin Metabolite 1, Tumor, Mean [12]: 9.66 ng/g; Concentration of Cryptophycin Metabolite 1, Brain, Mean [13]: 0.725 ng/g; Concentration of Cryptophycin Metabolite 1, Heart, Mean [13]: 43.7 ng/g; Concentration of Cryptophycin Metabolite 1, Kidney, Mean [13]: 191 ng/g; Concentration of Cryptophycin Metabolite 1, Liver, Mean [13]: 53.6 ng/g; Concentration of Cryptophycin Metabolite 1, Plasma, Mean [13]: 2.15 ng/mL; Concentration of Cryptophycin Metabolite 1, Small Intestine, Mean [13]: 14.8 ng/g; Concentration of Cryptophycin Metabolite 1, Tumor, Mean [13]: 12.2 ng/g; Concentration of Cryptophycin Metabolite 1, Brain, Mean [14]: BLQ; Concentration of Cryptophycin Metabolite 1, Heart, Mean [14]: 0.763 ng/g; Concentration of Cryptophycin Metabolite 1, Kidney, Mean [14]: 9.65 ng/g; Concentration of Cryptophycin Metabolite 1, Liver, Mean [14]: 5.15 ng/g; Concentration of Cryptophycin Metabolite 1, Plasma, Mean [14]: 0.384 ng/mL; Concentration of Cryptophycin Metabolite 1, Small Intestine, Mean [14]: 4.02 ng/g; Concentration of Cryptophycin Metabolite 1, Tumor, Mean [14]: 10.8 ng/g; Concentration of Cryptophycin Metabolite 1, Brain, Mean [15]: 1.46 ng/g; Concentration of Cryptophycin Metabolite 1, Heart, Mean [15]: 87.1 ng/g; Concentration of Cryptophycin Metabolite 1, Kidney, Mean [15]: 225 ng/g; Concentration of Cryptophycin Metabolite 1, Liver, Mean [15]: 2710 ng/g; Concentration of Cryptophycin Metabolite 1, Plasma, Mean [15]: 23.6 ng/mL; Concentration of Cryptophycin Metabolite 1, Small Intestine, Mean [15]: 22.2 ng/g; Concentration of Cryptophycin Metabolite 1, Tumor, Mean [15]: 2.36 ng/g; Concentration of Cryptophycin Metabolite 1, Brain, Mean [16]: 0.895 ng/g; Concentration of Cryptophycin Metabolite 1, Heart, Mean [16]: 80.2 ng/g; Concentration of Cryptophycin Metabolite 1, Kidney, Mean [16]: 361 ng/g; Concentration of Cryptophycin Metabolite 1, Liver, Mean [16]: 499 ng/g; Concentration of Cryptophycin Metabolite 1, Plasma, Mean [16]: 8.37 ng/mL; Concentration of Cryptophycin Metabolite 1, Small Intestine, Mean [16]: 29.7 ng/g; Concentration of Cryptophycin Metabolite 1, Tumor, Mean [16]: 3.27 ng/g; Concentration of Cryptophycin Metabolite 1, Brain, Mean [17]: 0.983 ng/g; Concentration of Cryptophycin Metabolite 1, Heart, Mean [17]: 70.3 ng/g; Concentration of Cryptophycin Metabolite 1, Kidney, Mean [17]: 294 ng/g; Concentration of Cryptophycin Metabolite 1, Liver, Mean [17]: 310 ng/g; Concentration of Cryptophycin Metabolite 1, Plasma, Mean [17]: 6.46 ng/mL; Concentration of Cryptophycin Metabolite 1, Small Intestine, Mean [17]: 24.3 ng/g; Concentration of Cryptophycin Metabolite 1, Tumor, Mean [17]: 3.41 ng/g; Concentration of Cryptophycin Metabolite 1, Brain, Mean [18]: 0.887 ng/g; Concentration of Cryptophycin Metabolite 1, Heart, Mean [18]: 52.8 ng/g; Concentration of Cryptophycin Metabolite 1, Kidney, Mean [18]: 249 ng/g; Concentration of Cryptophycin Metabolite 1, Liver, Mean [18]: 194 ng/g; Concentration of Cryptophycin Metabolite 1, Plasma, Mean [18]: 4.32 ng/mL; Concentration of Cryptophycin Metabolite 1, Small Intestine, Mean [18]: 23.1 ng/g; Concentration of Cryptophycin Metabolite 1, Tumor, Mean [18]: 4.01 ng/g; Concentration of Cryptophycin Metabolite 1, Brain, Mean [19]: 0.412 ng/g; Concentration of Cryptophycin Metabolite 1, Heart, Mean [19]: 25.4 ng/g; Concentration of Cryptophycin Metabolite 1, Kidney, Mean [19]: 91.2 ng/g; Concentration of Cryptophycin Metabolite 1, Liver, Mean [19]: 37.2 ng/g; Concentration of Cryptophycin Metabolite 1, Plasma, Mean [19]: 1.86 ng/mL; Concentration of Cryptophycin Metabolite 1, Small Intestine, Mean [19]: 26.1 ng/g; Concentration of Cryptophycin Metabolite 1, Tumor, Mean [19]: 5.33 ng/g; Concentration of Cryptophycin Metabolite 1, Brain, Mean [20]: BLQ; Concentration of Cryptophycin Metabolite 1, Heart, Mean [20]: 0.387 ng/g; Concentration of Cryptophycin Metabolite 1, Kidney, Mean [20]: 4.88 ng/g; Concentration of Cryptophycin Metabolite 1, Liver, Mean [20]: 7.89 ng/g; Concentration of Cryptophycin Metabolite 1, Plasma, Mean [20]: 0.141 ng/mL; Concentration of Cryptophycin Metabolite 1, Small Intestine, Mean [20]: 1.50 ng/g; Concentration of Cryptophycin Metabolite 1, Tumor, Mean [20]: 4.91 ng/g; AUC(0-inf) of Cryptophycin Metabolite 1 [21]: 53.2 ng·h/mL; AUC(0-t) of Cryptophycin Metabolite 1 [21]: 49.9 ng·h/mL; Cmax of Cryptophycin Metabolite 1 [21]: 12.4 ng/mL; t1/2 of Cryptophycin Metabolite 1 [21]: 6.24 h; tmax of Cryptophycin Metabolite 1 [21]: 1.0 h; AUC(0-inf) of Cryptophycin Metabolite 1 [22]: 40.7 ng·h/mL; AUC(0-t) of Cryptophycin Metabolite 1 [22]: 39.8 ng·h/mL; Cmax of Cryptophycin Metabolite 1 [22]: 23.6 ng/mL; t1/2 of Cryptophycin Metabolite 1 [22]: 4.57 h; tmax of Cryptophycin Metabolite 1 [22]: 0.083 h and 0.08 h; AUC(0-inf) of Cryptophycin Metabolite 1 [23]: 316 ng·h/g; AUC(0-t) of Cryptophycin Metabolite 1 [23]: 263 ng·h/g; t1/2 of Cryptophycin Metabolite 1 [23]: 9.18 h; tmax of Cryptophycin Metabolite 1 [23]: 1.00 h; AUC(0-inf) of Cryptophycin Metabolite 1 [24]: 314 ng·h/g; AUC(0-t) of Cryptophycin Metabolite 1 [24]: 302 ng·h/g; t1/2 of Cryptophycin Metabolite 1 [24]: 5.15 h; tmax of Cryptophycin Metabolite 1 [24]: 0.50 h; AUC(0-t) of Cryptophycin Metabolite 1 [25]: 259 ng·h/g; tmax of Cryptophycin Metabolite 1 [25]: 6.00 h; AUC(0-t) of Cryptophycin Metabolite 1 [26]: 117 ng·h/g; tmax of Cryptophycin Metabolite 1 [26]: 6.00 h
